The text below walks through data of patent publication US7544708B2, “Azabicyclo derivatives as muscarinic receptor antagonists” (Ranbaxy Laboratories Limited, priority 2002, dated 2009).

Counter-ions that a name gives are not always drawn. Like-named read-outs stand apart in the source and are kept apart here.

Experiment [1] has as its target T1, M2 muscarinic receptor subtype (rat heart) (Rattus norvegicus, UniProt P10980).
T1 construct: Submandibular glands and heart were isolated and placed in ice cold homogenising buffer; from tissue; host or cells: rat heart membranes
T1 sequence (P10980 1-466): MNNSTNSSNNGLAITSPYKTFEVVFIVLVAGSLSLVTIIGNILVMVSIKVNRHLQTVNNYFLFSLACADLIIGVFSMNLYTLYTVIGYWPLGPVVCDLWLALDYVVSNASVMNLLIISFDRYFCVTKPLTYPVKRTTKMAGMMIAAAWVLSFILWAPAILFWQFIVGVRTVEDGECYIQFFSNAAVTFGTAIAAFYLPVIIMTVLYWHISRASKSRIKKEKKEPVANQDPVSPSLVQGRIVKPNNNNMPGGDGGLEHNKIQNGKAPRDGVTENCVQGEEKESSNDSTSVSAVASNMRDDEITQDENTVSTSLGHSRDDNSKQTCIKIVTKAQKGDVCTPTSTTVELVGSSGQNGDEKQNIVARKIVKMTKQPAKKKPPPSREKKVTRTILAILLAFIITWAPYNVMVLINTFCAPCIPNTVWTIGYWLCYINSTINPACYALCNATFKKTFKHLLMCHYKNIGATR
Kind of experiment: Radioligand binding assay, [3H]-N-methylscopolamine, M2. The procedure:
(§1) The membrane preparation was done with the following modifications: a low spin step of 500 g for 10 minutes at 4° C. was used; the buffer was 20 mM HEPES, 10 mM EDTA, at pH 7.4; the high speed spin was done at 40,000 g and the homogenate was passed through a filter gauge before any spinning.
(§2) Membrane preparation: Submandibular glands and heart were isolated and placed in ice cold homogenising buffer (HEPES 20 mM, 10 mM EDTA, pH 7.4) immediately after sacrifice. The tissues were homogenised in 10 volumes of homogenising buffer and the homogenate was filtered through two layers of wet gauze and filtrate was centrifuged at 500 g for 10 min. The supernatant was subsequently centrifuged at 40,000 g for 20 min. The pellet thus obtained was resuspended in same volume of assay buffer (HEPES 20 mM, EDTA 5 mM, pH 7.4) and were stored at −700C until the time of assay.
(§3) Ligand binding assay: The compounds were dissolved and diluted in DMSO. The membrane homogenates (150-250 μg protein) were incubated in 250 μl of assay buffer (HEPES 20 mM, pH 7.4) at 24-25° C. for 3 h. […] The incubation was terminated by vacuum filtration over GF/B fiber filters (Wallac). The filters were then washed with ice cold 50 mM Tris HCl buffer (pH 7.4). The filter mats were dried and bound radioactivity retained on filters was counted. The IC50 and Kd were estimated by using the non-linear curve fitting program using G Pad Prism software.

Experiment [2] has as its target T2, M3 muscarinic receptor subtype (rat submandibular gland) (Rattus norvegicus, UniProt P08483).
T2 construct: Submandibular glands and heart were isolated and placed in ice cold homogenising buffer; from tissue; host or cells: rat submandibular gland membranes
Description: Radioligand binding assay, [3H]-N-methylscopolamine, M3. The procedure: as §1, §2, §3

Experiment [3] concerns carbachol evoked changes on bladder pressure, heart rate and salivation. Kind of experiment: In vivo experiments using anesthetized rabbit. The settings on record: for ID50 Bladder Pressure / ID50 Heart Rate Response / ID50 Salivary Response: carbachol 1.5 μg/kg intrarterial, i.v. test compound; for Fold Selectivity Bladder versus Heart Rate / Fold Selectivity Bladder versus Salivary: from ID50 values. The procedure: In vivo experiments using anesthetized rabbit: The effect of test substances was studied on carbachol evoked changes on bladder pressure, heart rate and salivation. Male rabbits weighing 1.2-3 kg were anaesthetized with urethane (1.5 g/kg), and administered as a slow intravenous infusion through the marginal ear vein. The tracheae were cannulated to maintain airway patency. Blood pressure was recorded from the femoral artery by means of a Statham P10 EZ pressure transducer connected to a Grass model 7D polygraph. The heart rate was monitored by a tachograph triggered by the pulse wave of blood pressure. The other femoral artery was cannulated for the administration of carbachol. Test compound and saline were infused intravenously via the femoral vein.
The bladder was exposed through a midline laparotomy and both the ureters were identified, carefully separated and ligated. The ureters were incised proximally to allow free flow of urine from the kidney to the exterior. Bladder neck was gently held and the urethra was traced and separated from the adjoining tissues. PE canula was introduced into the bladder and ligated. The bladder was drained and subsequently filled with 15 ml of warm saline (37° C.). The other end of the intravesical catheter was connected to the Grass model 7D polygraph through a Statham P10 EZ pressure transducer to monitor the bladder pressure. Care was taken to keep the exposed area moist and warm. A period of 30-60 min was allowed for stabilization of parameters subsequent to surgery. Salivation response was assessed by placing preweighed absorbent cotton gauze in the buccal cavity for 2 minutes after carbachol administration.
At least two stable responses were obtained. These responses were considered as 100%. Subsequently, effect of increasing dose of test compound or vehicle (i.v,12 to 15 min before carbachol challenge) was studied.
The change in bladder pressure, salivation and agonist induced bradycardia were expressed as % change from pretreatment control.

Setting [4] is: Receptor Binding Assay M2 pKi, [3H]-N-methylscopolamine, rat heart membranes.
Where [5] appears, read: Receptor Binding Assay M3 Pki, [3H]-N-methylscopolamine, rat submandibular gland membranes.

T2 sequence (P08483 whole entry): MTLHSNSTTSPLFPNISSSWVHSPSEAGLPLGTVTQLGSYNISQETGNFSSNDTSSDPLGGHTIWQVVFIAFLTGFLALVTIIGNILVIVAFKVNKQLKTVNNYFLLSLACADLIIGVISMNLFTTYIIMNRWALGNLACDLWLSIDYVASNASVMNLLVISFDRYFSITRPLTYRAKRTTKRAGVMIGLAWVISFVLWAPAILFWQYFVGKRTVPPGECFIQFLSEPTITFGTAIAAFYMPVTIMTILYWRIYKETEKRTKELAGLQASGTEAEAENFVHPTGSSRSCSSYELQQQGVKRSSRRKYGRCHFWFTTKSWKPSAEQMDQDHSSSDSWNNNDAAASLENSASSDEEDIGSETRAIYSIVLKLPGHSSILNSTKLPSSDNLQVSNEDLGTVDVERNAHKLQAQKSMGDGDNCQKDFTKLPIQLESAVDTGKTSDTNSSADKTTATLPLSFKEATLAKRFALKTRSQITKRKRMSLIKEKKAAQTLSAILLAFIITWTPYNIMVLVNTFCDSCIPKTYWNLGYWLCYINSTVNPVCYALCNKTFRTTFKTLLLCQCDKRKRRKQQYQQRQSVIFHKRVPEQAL

Turning to `O=C(NC[C@H]1[C@@H]2CNC[C@@H]21)[C@@](O)(c1ccccc1)C1CCCC1` [Compound 6, (2S)-(1α,5α,6α)-N-[3-azabicyclo[3.1.0]hexyl-6-(aminomethyl)-yl]-2-hydroxy-2-cyclopentyl 2-phenyl acetamide hydrochloride salt], the Ki is 77.6 nM in experiment [1] (Receptor Binding Assay M2 pKi) and 13.2 nM in experiment [2] (Receptor Binding Assay M3 Pki).

Consider `O=C(NCC1C2CNCC21)C(O)(c1ccccc1)C1CCC(F)(F)C1` (mixture of isomers) [Compound 14, (2R,2S) (1α,5α,6α)-N-[3-azabicyclo[3.1.0]hexyl-6-(aminomethyl)-yl]-2-hydroxy-2-(3,3-difluorocyclopentyl)-2-phenyl acetamide tartarate salt], for which the Ki in experiment [1] (Receptor Binding Assay M2 pKi) was 72.4 nM; in experiment [2] (Receptor Binding Assay M3 Pki), 1.35 nM.

As for `O=C(NC[C@H]1[C@@H]2CNC[C@@H]21)[C@@](O)(c1ccccc1)C1CCCC1` [Compound 5, (2S)-(1α,5α,6α)-N-[3-azabicyclo[3.1.0]hexyl-6-(aminomethyl)-yl]-2-hydroxy-2-cyclopentyl 2-phenyl acetamide], the Ki in experiment [1] (Receptor Binding Assay M2 pKi) is 158 nM; in experiment [2] (Receptor Binding Assay M3 Pki), 31.6 nM.

Take `O=C(NCC1C2CNCC21)C(O)(c1ccccc1)C1CCC(F)C1` (mixture of isomers) [Compound 12, (2R,2S) (1α,5α,6α)-N-[3-azabicyclo[3.1.0]hexyl-6-(aminomethyl)-yl]-2-hydroxy-2-(3-fluorocyclopentyl)-2-phenyl acetamide]: the Ki is 25.1 nM in experiment [1] (Receptor Binding Assay M2 pKi) and 0.912 nM in experiment [2] (Receptor Binding Assay M3 Pki).

Turning to `O=C(OC[C@H]1[C@@H]2CNC[C@@H]21)C(O)(c1ccccc1)c1ccccc1` [Compound 15, (2R,2S) (1α,5α,6α)-N-[3-azabicyclo[3.1.0]hexyl-6-(aminomethyl)-yl]-2-hydroxy-2,2-diphenyl acetate], the Ki was 0.219 nM in experiment [1] (setting [4]) and 0.0661 nM in experiment [2] (setting [5]).

As for `O=C(NC[C@H]1[C@@H]2CNC[C@@H]21)C(O)(c1ccccc1)C1CCCCCC1` (mixture of isomers) [Compound 8, (2R,2S) (1α,5α,6α)-N-[3-azabicyclo[3.1.0]hexyl-6-(aminomethyl)-yl]-2-hydroxy-2-cycloheptyl-2-phenyl acetamide], the Ki was 44.7 nM in experiment [1] (Receptor Binding Assay M2 pKi) and 1.48 nM in experiment [2] (Receptor Binding Assay M3 Pki).

Consider `O=C(NCC1C2CNCC21)C(O)(c1ccccc1)C1CCC1` [Compound 10, (2R,2S) (1α,5α,6α)-N-[3-azabicyclo[3.1.0]hexyl-6-(aminomethyl)-yl]-2-hydroxy-2-cyclobutyl-2-phenyl acetamide tartarate salt], for which the Ki was 6.31 nM in experiment [1] (Receptor Binding Assay M2 pKi) and 0.316 nM in experiment [2] (Receptor Binding Assay M3 Pki).

As for `Cc1ccc(O)c([C@H](CCN(C(C)C)C(C)C)c2ccccc2)c1` [Tolterodine, reference compound], in experiment [3], the “ID50 Bladder Pressure” value is recorded as 25.84 ± 4.24 μg/kg, i.v; the “ID50 Heart Rate Response” value is listed as 32.54 ± 5.77 μg/kg, i.v; the “ID50 Salivary Response” value is given as 32.5 ± 10.02 μg/kg, i.v.

In turn, `O=C(NC[C@H]1[C@@H]2CNC[C@@H]21)[C@](O)(c1ccccc1)C1CCCC1` [Compound 4, (2R)-(1α,5α,6α)-N-[3-azabicyclo[3.1.0]hexyl-6-(aminomethyl)-yl]-2-hydroxy-2-cyclopentyl 2-phenyl acetamide hydrochloride salt] gave a Ki in experiment [1] (Receptor Binding Assay M2 pKi) of 3.72 nM. Further, in experiment [3], the “ID50 Bladder Pressure” value is on record as 2.14 ± 0.42 μg/kg, i.v; the “ID50 Heart Rate Response” value is given as 5.65 ± 0.86 μg/kg, i.v; the “ID50 Salivary Response” value is 4.66 ± 0.56 μg/kg, i.v; the “Fold Selectivity Bladder versus Heart Rate” value was 3.43 ± 1.02. Also, the “Fold Selectivity Bladder versus Salivary” value in experiment [3] turned out to be 2.37 ± 0.22. In experiment [2] (Receptor Binding Assay M3 Pki), this molecule had a Ki of 0.224 nM.

As for `CN(C[C@H]1[C@@H]2CNC[C@@H]21)C(=O)C(O)(c1ccccc1)C1CCCC1` (mixture of isomers) [Compound 18, (2R,2S) (1α,5α,6α)-N-[3-azabicyclo[3.1.0]hex-6-ylmethyl)-2-cyclopentyl-2-hydroxy-N-methyl-2-phenyl acetamide], the Ki in experiment [1] (Receptor Binding Assay M2 pKi) is 2.75 nM; in experiment [2] (Receptor Binding Assay M3 Pki), 0.38 nM.

As to `COC(C(=O)NC[C@H]1[C@@H]2CNC[C@@H]21)(c1ccccc1)C1CCCC1` (mixture of isomers) [Compound 7, (2R,2S) (1α,5α,6α)-N-[3-azabicyclo[3.1.0]hexyl-6-(aminomethyl)-yl]-2-methoxy-2-cyclopentyl-2-phenyl acetamide], the Ki was 25.1 nM in experiment [1] ([3H]-N-methylscopolamine, rat heart membranes, read-out: Receptor Binding Assay M2 pKi (converted)) and 2.45 nM in experiment [2] ([3H]-N-methylscopolamine, rat submandibular gland membranes, read-out: Receptor Binding Assay M3 Pki (converted)).

In the case of `O=C(NCC1C2CNCC21)C(O)(c1ccccc1)C1CCC(F)(F)C1` (mixture of isomers) [Compound 13, (2R,2S) (1α,5α,6α)-N-[3-azabicyclo[3.1.0]hexyl-6-(aminomethyl)-yl]-2-hydroxy-2-(3,3-difluorocyclopentyl)-2-phenyl acetamide], the Ki in experiment [1] (Receptor Binding Assay M2 pKi) was 50.1 nM; in experiment [2] (Receptor Binding Assay M3 Pki), 2 nM.

On to `O=C(NC[C@H]1[C@@H]2CNC[C@@H]21)C(O)(c1ccccc1)c1ccccc1` [Compound 16, (2R,2S) (1α,5α,6α)-N-[3-azabicyclo[3.1.0]hexyl-6-(aminomethyl)-yl]-2-hydroxy-2,2-diphenyl acetamide], for which the Ki in experiment [1] (setting [4]) was 11.2 nM; in experiment [2] (setting [5]), 0.389 nM.

Turning to `O=C(NC[C@H]1[C@@H]2CNC[C@@H]21)[C@](O)(c1ccccc1)C1CCC(F)(F)C1` (single isomer, unassigned) [Compound 11], the Ki in experiment [1] (Receptor Binding Assay M2 pKi) is 39.8 nM; in experiment [2] (Receptor Binding Assay M3 Pki), 1.26 nM.

In experiment [1] (Receptor Binding Assay M2 pKi), `O=C(NC[C@H]1[C@@H]2CNC[C@@H]21)C(O)(c1ccccc1)C1CCCC1` (mixture of isomers) [Compound 2, (2R,2S) (1α,5α,6α)-N-[3-azabicyclo[3.1.0]hexyl-6-(aminomethyl)-yl]-2-hydroxy-2-cyclopentyl-2-phenyl acetamide hydrochloride salt] showed a Ki of 4.37 nM. Further, in experiment [3], the “ID50 Bladder Pressure” value was 3.93 ± 1.1 μg/kg, i.v; the “ID50 Heart Rate Response” value is 21.13 ± 4.47 μg/kg, i.v; the “ID50 Salivary Response” value is given as 7.67 ± 1.19 μg/kg, i.v; the “Fold Selectivity Bladder versus Heart Rate” value is 12.6 ± 5.7. In addition, in experiment [3], the “Fold Selectivity Bladder versus Salivary” value is recorded as 3.08 ± 0.94. The same molecule gave a Ki in experiment [2] (Receptor Binding Assay M3 Pki) of 0.316 nM.

Turning to `O=C(NCC1C2CNCC21)C(O)(c1ccccc1)C1CCC1` [Compound 9, (2R,2S) (1α,5α,6α)-N-[3-azabicyclo[3.1.0]hexyl-6-(aminomethyl)-yl]-2-hydroxy-2-cyclobutyl-2-phenyl acetamide], the Ki is 9.55 nM in experiment [1] (Receptor Binding Assay M2 pKi) and 1.26 nM in experiment [2] (Receptor Binding Assay M3 Pki).

For `O=C(NC[C@H]1[C@@H]2CNC[C@@H]21)C(O)(c1ccccc1)C1CCCCC1` (mixture of isomers) [Compound 17, (2R,2S) (1α,5α,6α)-N-[3-azabicyclo[3.1.0]hexyl-6-(aminomethyl)-yl]-2-hydroxy-2-cyclohexyl-2-phenyl acetamide], the Ki was 50.1 nM in experiment [1] (Receptor Binding Assay M2 pKi) and 1.35 nM in experiment [2] (Receptor Binding Assay M3 Pki).
